Measurements published in BindingDB's records for doi:10.1016/j.bmcl.2012.09.081 (2012).

Assay: Inhibition of tobacco hornworm V-ATPase c subunit

IC50: 600 nM
SMILES: CNC(=O)O[C@@H](CC(C)C)c1nc([C@H]2OC(=O)/C(C)=C/C/C(C)=C/[C@@H](OC(=O)c3ccc(C4(C(F)(F)F)N=N4)cc3)[C@@H](C)\C=C(C)/C=C(C)\C=C\[C@@H](OC(=O)c3ccc(C4(C(F)(F)F)N=N4)cc3)[C@H](C)[C@H](OC)/C(C)=C/C=C/[C@@H]2C)cs1
